For data set [1], the target named is DNA gyrase subunit A/DNA gyrase subunit B (Mycobacterium tuberculosis (strain ATCC 25618 / H37Rv), UniProt P9WG45+P9WG47). In words: Inhibition of Mycobacterium tuberculosis DNA gyrase assessed as inhibition of supercoiling activity using relaxed pBR322 plasmid as substrate after 30 mins.
Data set [2] in a line: Cytotoxicity against mouse RAW264.7 cells at 50 uM after 48 hrs by MTT assay. Conditions: read-out: INH. The data set is classed as cell-based.
The subject of data set [3] is Mycobacterium tuberculosis. In words: Antimycobacterial activity against Mycobacterium tuberculosis H37Rv after 7 days by alamar blue assay. The data set is classed as functional. Conditions: 168 h.
The species named for data set [4] is Danio rerio. In words: Toxicity in zebrafish embryo assessed as heart rate at 30 uM after 4 hrs. Type of data set: organism-based. Conditions: in vivo.
Data set [5] is filed under the species Danio rerio. Kind of data set: Toxicity in zebrafish embryo assessed as artrio-ventricular ratio at 30 uM after 4 hrs. The data set is classed as organism-based. Conditions: in vivo.
Data set [6] is filed under the species Danio rerio. Kind of data set: Toxicity in zebrafish embryo assessed as heart rate at 10 uM after 4 hrs. Type of data set: organism-based. Conditions: in vivo.
For data set [7], the species on record is Danio rerio. Kind of data set: Toxicity in zebrafish embryo assessed as artrio-ventricular ratio at 10 uM after 4 hrs. Type of data set: organism-based. Conditions: in vivo.

Values after ≈ are worked out from the molar mass of the structure shown.

By IC50 is commonly meant the concentration needed to halve the response being measured. Broadly, the MIC is the lowest concentration that inhibits growth of the organism. Lower therefore signals a more susceptible organism.

DNA gyrase subunit A/DNA gyrase subunit B, sequence (P9WG45 whole entry): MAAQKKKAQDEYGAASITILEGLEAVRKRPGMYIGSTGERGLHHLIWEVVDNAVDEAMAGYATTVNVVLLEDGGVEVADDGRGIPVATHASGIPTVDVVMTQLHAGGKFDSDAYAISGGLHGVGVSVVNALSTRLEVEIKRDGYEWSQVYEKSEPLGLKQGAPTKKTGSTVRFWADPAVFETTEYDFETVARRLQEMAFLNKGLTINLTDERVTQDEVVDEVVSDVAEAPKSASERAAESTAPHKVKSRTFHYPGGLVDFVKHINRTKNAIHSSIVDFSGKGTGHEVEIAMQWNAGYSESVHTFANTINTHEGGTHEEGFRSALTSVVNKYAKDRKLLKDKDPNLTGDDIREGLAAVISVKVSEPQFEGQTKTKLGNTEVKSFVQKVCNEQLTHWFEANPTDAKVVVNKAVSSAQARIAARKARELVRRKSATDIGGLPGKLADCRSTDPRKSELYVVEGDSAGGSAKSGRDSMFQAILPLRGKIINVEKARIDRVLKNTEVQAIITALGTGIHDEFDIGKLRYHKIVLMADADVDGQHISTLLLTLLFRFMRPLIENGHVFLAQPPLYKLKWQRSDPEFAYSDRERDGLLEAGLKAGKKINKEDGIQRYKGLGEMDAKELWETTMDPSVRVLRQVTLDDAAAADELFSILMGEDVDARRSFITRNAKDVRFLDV
DNA gyrase subunit A/DNA gyrase subunit B, sequence (P9WG47 whole entry): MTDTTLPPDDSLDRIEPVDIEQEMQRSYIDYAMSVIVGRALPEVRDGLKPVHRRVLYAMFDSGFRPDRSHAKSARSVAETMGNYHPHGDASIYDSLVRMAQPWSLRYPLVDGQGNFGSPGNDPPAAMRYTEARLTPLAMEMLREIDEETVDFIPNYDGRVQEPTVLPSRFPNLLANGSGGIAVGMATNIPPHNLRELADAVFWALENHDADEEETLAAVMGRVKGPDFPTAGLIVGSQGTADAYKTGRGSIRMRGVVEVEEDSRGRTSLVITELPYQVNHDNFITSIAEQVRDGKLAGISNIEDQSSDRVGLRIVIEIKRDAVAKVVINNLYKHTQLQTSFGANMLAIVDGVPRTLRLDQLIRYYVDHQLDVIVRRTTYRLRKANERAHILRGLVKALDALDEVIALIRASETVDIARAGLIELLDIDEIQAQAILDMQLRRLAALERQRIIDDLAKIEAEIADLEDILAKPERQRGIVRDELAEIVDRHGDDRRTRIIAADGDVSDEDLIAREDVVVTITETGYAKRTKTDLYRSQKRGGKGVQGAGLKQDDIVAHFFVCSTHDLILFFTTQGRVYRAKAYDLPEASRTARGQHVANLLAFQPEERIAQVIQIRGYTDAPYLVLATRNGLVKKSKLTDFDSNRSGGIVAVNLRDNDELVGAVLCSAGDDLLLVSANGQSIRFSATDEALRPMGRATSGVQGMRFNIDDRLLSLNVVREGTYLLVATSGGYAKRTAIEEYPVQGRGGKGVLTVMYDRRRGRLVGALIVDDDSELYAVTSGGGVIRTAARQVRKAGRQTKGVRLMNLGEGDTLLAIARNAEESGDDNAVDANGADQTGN

With `COc1cnc2ccc(=O)n(CCN3CCN(Cc4ccc(F)cc4)CC3)c2c1`, in data set [1], the IC50 came out at 0.91 µM. Moreover, the cytotoxicity at 48 h, 50 µM in data set [2] was 26.4%. The MIC in data set [3] is 15 µM (≈ 5.95 µg/mL).
In the case of `COc1cnc2ccc(=O)n(CCN3CCN(C(=S)Nc4ccccc4)CC3)c2c1`, the IC50 in data set [1] was 15.4 µM. The cytotoxicity at 48 h, 50 µM in data set [2] is 32.6%. In data set [3], the minimum inhibitory concentration (MIC) was found to be 29.5 µM (≈ 12.5 µg/mL).
In the same order, the values of `COc1cnc2ccc(=O)n(CCN3CCN(Cc4ccc(Br)cc4)CC3)c2c1` are 6.44 µM, 2.15% and 13.7 µM (≈ 6.25 µg/mL).
For `COc1cnc2ccc(=O)n(CCN3CCN(C(=O)Nc4ccc(Br)cc4)CC3)c2c1`, the concentration for half-maximal inhibition (IC50) in data set [1] was found to be 0.75 µM. In data set [2], the cytotoxicity at 48 h, 50 µM was 24.4%. For the same compound, the MIC in data set [3] amounted to 3.21 µM (≈ 1.56 µg/mL).
Turning to `COc1cnc2ccc(=O)n(CCN3CCN(C(=S)Nc4ccc(Br)cc4)CC3)c2c1`, in data set [1], the IC50 was determined as 0.49 µM. The cytotoxicity at 48 h, 50 µM in data set [2] amounted to 1.06%. Inhibition of growth in data set [3] (MIC) required 3.8 µM (≈ 1.91 µg/mL).
On to `COc1cnc2ccc(=O)n(CCN3CCN(C(=S)Nc4ccc(Cl)cc4)CC3)c2c1`, for which the IC50 in data set [1] came to 12.8 µM. In addition, the cytotoxicity at 48 h, 50 µM in data set [2] turned out to be 6.59%. The compound further came in with an MIC in data set [3] of 13.6 µM (≈ 6.25 µg/mL).
In the same order, the values of `COc1cnc2ccc(=O)n(CCN3CCN(C(=O)Nc4ccc(F)cc4)CC3)c2c1` are 11.6 µM, 25.2% and 14.7 µM (≈ 6.25 µg/mL).
`COc1cnc2ccc(=O)n(CCN3CCN(C(=O)Nc4ccc(C(C)=O)cc4)CC3)c2c1`: the 50% inhibitory concentration (IC50) in data set [1] amounted to 19.4 µM. Further, the cytotoxicity at 48 h, 50 µM in data set [2] was determined as 18.6%. Besides, the MIC in data set [3] turned out to be 26.9 µM (≈ 12.1 µg/mL).
With `COc1cnc2ccc(=O)n(CCN3CCN(C(=O)Nc4ccc(Cl)cc4)CC3)c2c1`, the IC50 in data set [1] was 0.32 µM. The Activity result in data set [4] and in data set [5] was “Toxic” throughout. Moreover, the cytotoxicity at 48 h, 50 µM in data set [2] was 27%. In data set [3], this compound yielded an MIC of 7.06 µM (≈ 3.12 µg/mL).
Regarding `COc1cnc2ccc(=O)n(CCN3CCN(Cc4ccc(Cl)cc4)CC3)c2c1`, the 50% inhibitory concentration (IC50) in data set [1] came out at 0.81 µM. For the same compound, the cytotoxicity at 48 h, 50 µM in data set [2] turned out to be 26.5%. Moreover, in data set [3], the lowest concentration to inhibit growth (MIC) was 10.1 µM (≈ 4.17 µg/mL).
`COc1cnc2ccc(=O)n(CCN3CCN(C(=S)Nc4ccc(F)cc4)CC3)c2c1`: the IC50 in data set [1] turned out to be 14.7 µM. For the same compound, in data set [2], the cytotoxicity at 48 h, 50 µM stood at 21.6%. In data set [3], this compound showed a minimal inhibitory concentration (MIC) of 14.2 µM (≈ 6.25 µg/mL).
On to `COc1ccc(CNC(=S)N2CCN(CCn3c(=O)ccc4ncc(OC)cc43)CC2)cc1`, for which, in data set [1], the IC50 was found to be 15.5 µM. Moreover, the cytotoxicity at 48 h, 50 µM in data set [2] is 17.1%. For the same compound, in data set [3], the minimum inhibitory concentration (MIC) turned out to be 26.7 µM (≈ 12.5 µg/mL).
In the same order, the values of `COc1cnc2ccc(=O)n(CCN3CCN(Cc4ccccc4)CC3)c2c1` are 0.94 µM, 15% and 4.12 µM (≈ 1.56 µg/mL).
For the compound `COc1cnc2ccc(=O)n(CCN3CCN(C(=S)Nc4ccc(C)cc4)CC3)c2c1`, the concentration for half-maximal inhibition (IC50) in data set [1] worked out at 11.5 µM. Also, the cytotoxicity at 48 h, 50 µM in data set [2] turned out to be 26.8%. Further, inhibition of growth in data set [3] (MIC) required 10.7 µM (≈ 4.66 µg/mL).
Take `CO[C@@H]1[C@@H](OC(N)=O)[C@@H](O)[C@H](Oc2ccc3c(O)c(NC(=O)c4ccc(O)c(CC=C(C)C)c4)c(=O)oc3c2C)OC1(C)C` [NOVOBIOCIN]: the cytotoxicity at 48 h, 50 µM in data set [2] is 19.3%. Besides, the MIC in data set [3] was over 200 µM.
With `COc1ccc(CN2CCN(CCn3c(=O)ccc4ncc(OC)cc43)CC2)cc1`, in data set [1], the IC50 came out at 1.34 µM. The cytotoxicity at 48 h, 50 µM in data set [2] was determined as 15.9%. Also, in data set [3], the minimal inhibitory concentration (MIC) amounted to 3.82 µM (≈ 1.56 µg/mL).
For `COc1cnc2ccc(=O)n(CCN3CCN(C(=S)Nc4ccc(C(C)=O)cc4)CC3)c2c1` the same measures were 16.4 µM, 3.16% and 10.7 µM (≈ 4.96 µg/mL).
In the case of `COc1cnc2ccc(=O)n(CCN3CCN(C(=O)Nc4ccc(C)cc4)CC3)c2c1`, the IC50 in data set [1] was 2.68 µM. Further, in data set [2], the cytotoxicity at 48 h, 50 µM came out at 32.3%. In data set [3], 7.41 µM (≈ 3.12 µg/mL) was the least that counted as inhibitory (MIC).
Regarding `COc1cnc2ccc(=O)n(CCN3CCN(C(=O)NCc4ccc(Cl)cc4)CC3)c2c1`, the half-maximal inhibitory concentration (IC50) in data set [1] was 0.92 µM. The cytotoxicity at 48 h, 50 µM in data set [2] is 24.6%. The MIC in data set [3] amounted to 6.6 µM (≈ 3.01 µg/mL).
For `COc1cnc2ccc(=O)n(CCN3CCN(C(=S)NCc4ccc(Cl)cc4)CC3)c2c1` the same measures were 0.95 µM, 24.9% and 4.31 µM (≈ 2.03 µg/mL).
In the same order, the values of `COc1cnc2ccc(=O)n(CCN3CCN(C(=S)Nc4ccc([N+](=O)[O-])cc4)CC3)c2c1` are 18.5 µM, 17.3% and 26.7 µM (≈ 12.5 µg/mL).
In the same order, the values of `COc1cnc2ccc(=O)n(CCN3CCN(C(=O)Nc4ccccc4)CC3)c2c1` are 13.5 µM, 9.54% and 30.7 µM (≈ 12.5 µg/mL).
In the case of `COc1cnc2ccc(=O)n(CCN3CCN(Cc4ccc([N+](=O)[O-])cc4)CC3)c2c1`, the half-maximal inhibitory concentration (IC50) in data set [1] was determined as 0.98 µM. For the same compound, the cytotoxicity at 48 h, 50 µM in data set [2] amounted to 37.6%. The compound further returned a minimal inhibitory concentration (MIC) in data set [3] of 7.38 µM (≈ 3.13 µg/mL).
As to `CC[C@@H](CO)NCCN[C@@H](CC)CO` [ETHAMBUTOL], the lowest concentration to inhibit growth in data set [3] (MIC) was 9.84 µM (≈ 2.01 µg/mL).
As for `COc1c(N2C[C@@H]3CCCN[C@@H]3C2)c(F)cc2c(=O)c(C(=O)O)cn(C3CC3)c12` [MOXIFLOXACIN], in data set [3], the minimal inhibitory concentration (MIC) was determined as 2.4 µM (≈ 0.963 µg/mL).
Consider `COc1ccc(CNC(=O)N2CCN(CCn3c(=O)ccc4ncc(OC)cc43)CC2)cc1`, for which the IC50 in data set [1] turned out to be 14.6 µM. In addition, the cytotoxicity at 48 h, 50 µM in data set [2] stood at 37.6%. This compound also came in with an MIC in data set [3] of 27.7 µM (≈ 12.5 µg/mL).
On to `COc1cnc2ccc(=O)n(CCN3CCN(C(=O)Nc4ccc([N+](=O)[O-])cc4)CC3)c2c1`, for which the IC50 in data set [1] stood at 0.29 µM. Moreover, the Activity result in data set [4], in data set [5], in data set [6] and in data set [7] was “Toxic” in each case. The cytotoxicity at 48 h, 50 µM in data set [2] turned out to be 5.08%. The compound also registered a minimal inhibitory concentration (MIC) in data set [3] of 3.45 µM (≈ 1.56 µg/mL).

Values taken from ChEMBL document CHEMBL3739357, “Replacement of cardiotoxic aminopiperidine linker with piperazine moiety reduces cardiotoxicity? Mycobacterium tuberculosis novel bacterial topoisomerase inhibitors” (Bioorg Med Chem, 2016).
